Data published in patent US8680062B2, “System for delivering therapeutic agents into living cells and cells nuclei” (Deliversir Ltd., priority 2004, dated 2014).

Experiments:
[1] = target: T1, rTh polymerase (Thermus thermophilus, UniProt P52028); assay: PCR polymerase assay of modified nucleotide as substrate in place of dTTP; type: biochemical; conditions: typical PCR conditions, Taq, Vent, Pfu and rTh polymerases tested
T1 construct: purchased
Description: The modified nucleotides described above were tasted in polymerase assays to determine their compatibility as substrates for polymerase reactions. The modified nucleotide Compound 7 (modified dUTP), served as a substrate in place of deoxythymidinetriphosphate, dTTP, for thermostable DNA polymerases using typical PCR conditions. Commercially available thermostable DNA polymerases from […] were used in the assays: Taq from Thermus aquaticus, Vent from Thermococcus litoralis, Pfu from Pyrococcus furiosus, and rTh from Thennus thennophilus.

[2] = target: DNA polymerase I (Escherichia coli, UniProt P00582); conditions: 90 minute time point; 5.4 Kb plasmid, 15° C., 3H-dGTP counting
Chain of DNA polymerase I (P00582 whole entry): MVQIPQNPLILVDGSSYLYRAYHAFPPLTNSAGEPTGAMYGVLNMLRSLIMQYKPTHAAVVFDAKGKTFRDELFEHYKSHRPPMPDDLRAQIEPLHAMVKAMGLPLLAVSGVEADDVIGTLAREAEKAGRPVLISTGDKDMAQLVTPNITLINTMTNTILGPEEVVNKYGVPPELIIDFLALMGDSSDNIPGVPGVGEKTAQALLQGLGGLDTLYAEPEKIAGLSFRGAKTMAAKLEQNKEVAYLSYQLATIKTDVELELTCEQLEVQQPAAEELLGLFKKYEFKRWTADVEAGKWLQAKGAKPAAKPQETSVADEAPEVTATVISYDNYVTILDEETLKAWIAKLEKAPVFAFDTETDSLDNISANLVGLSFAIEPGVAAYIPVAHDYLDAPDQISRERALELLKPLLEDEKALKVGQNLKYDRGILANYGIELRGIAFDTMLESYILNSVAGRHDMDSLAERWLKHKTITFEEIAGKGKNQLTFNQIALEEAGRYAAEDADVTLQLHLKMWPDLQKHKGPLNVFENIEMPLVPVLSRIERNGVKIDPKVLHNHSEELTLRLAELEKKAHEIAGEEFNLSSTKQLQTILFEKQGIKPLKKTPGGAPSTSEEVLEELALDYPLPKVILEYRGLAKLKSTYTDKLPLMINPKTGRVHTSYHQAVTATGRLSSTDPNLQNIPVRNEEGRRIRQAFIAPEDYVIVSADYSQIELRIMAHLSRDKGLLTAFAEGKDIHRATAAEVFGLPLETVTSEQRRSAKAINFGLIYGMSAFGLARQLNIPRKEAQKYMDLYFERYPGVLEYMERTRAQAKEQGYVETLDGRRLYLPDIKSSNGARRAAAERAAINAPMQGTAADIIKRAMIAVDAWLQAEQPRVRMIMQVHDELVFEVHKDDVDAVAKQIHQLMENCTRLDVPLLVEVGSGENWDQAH
Description: At each time point of interest, 2 μl from the reaction mixture were withdrawn, spotted on glass fiber filters (GF/C), washed once with 10% trichloroacetic acid (TCA) and twice with 5% TCA, and with alcohol and was thereafter dried. The filters were loaded to a liquid scintillation counter for measurements of the progression of the polymerase reaction and the relative level of incorporation.

T1 sequence (P52028 whole entry): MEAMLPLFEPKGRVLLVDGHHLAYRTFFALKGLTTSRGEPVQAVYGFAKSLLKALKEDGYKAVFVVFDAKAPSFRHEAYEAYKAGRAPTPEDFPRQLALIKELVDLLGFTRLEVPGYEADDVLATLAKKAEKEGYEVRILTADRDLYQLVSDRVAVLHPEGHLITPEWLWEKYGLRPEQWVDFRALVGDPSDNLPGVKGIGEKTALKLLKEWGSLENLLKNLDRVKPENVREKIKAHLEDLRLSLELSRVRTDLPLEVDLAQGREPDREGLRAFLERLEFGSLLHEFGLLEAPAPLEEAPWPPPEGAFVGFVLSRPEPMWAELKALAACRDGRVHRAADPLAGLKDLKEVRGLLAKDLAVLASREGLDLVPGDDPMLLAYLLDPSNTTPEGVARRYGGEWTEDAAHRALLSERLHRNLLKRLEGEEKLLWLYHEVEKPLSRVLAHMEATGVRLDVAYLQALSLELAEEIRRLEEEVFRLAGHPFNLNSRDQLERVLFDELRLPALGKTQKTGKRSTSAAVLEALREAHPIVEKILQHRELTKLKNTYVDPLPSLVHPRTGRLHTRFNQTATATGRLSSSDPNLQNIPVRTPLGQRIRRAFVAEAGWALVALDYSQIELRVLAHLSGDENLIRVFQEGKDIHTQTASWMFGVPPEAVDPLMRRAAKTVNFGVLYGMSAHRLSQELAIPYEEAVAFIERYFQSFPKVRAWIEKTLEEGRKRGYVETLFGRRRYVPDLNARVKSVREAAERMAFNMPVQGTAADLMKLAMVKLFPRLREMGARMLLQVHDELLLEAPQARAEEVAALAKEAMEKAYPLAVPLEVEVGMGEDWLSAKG

Compound	incorporation into PCR product as polymerase substrate [1]	relative levels of incorporation of the modified deoxynucleotides [2] [%]
NC/C=C/c1cn(C2CC(O)C(COP(=O)(O)OP(=O)(O)OP(=O)(O)O)O2)c(=O)[nH]c1=O (stereo not shown) [Compound 7, 5′-triphosphate-5-(3-aminopropen-1-yl)deoxyuridine]	incorporation into a 561 base pair product only with rTh polymerase	–
NCCCCCCNc1ncnc2c1ncn2[C@H]1C[C@H](O)[C@@H](COP(=O)(O)OP(=O)(O)OP(=O)(O)O)O1 [N^6-aminohexyl dATP, reference compound]	–	70
urocanic acid modified dCTP [Compound 11]	–	44
urocanic acid modified dUTP [Compound 8]	–	54
